Literature values, collected in US20210379028A1, “TREATMENT OF DEPRESSIVE DISORDERS” (Ovid Therapeutics Inc., priority 2017, published 2021).

How the values were obtained:
[1] = three-month efficacy study, treatment of insomnia
[2] = patients with a history of drug abuse who received gaboxadol
[3] = patients with severe major depressive disorder, combined with escitalopram

## Oc1noc2c1CCNC2 [gaboxadol, 4,5,6,7-tetrahydroisoxazolo [5,4-c] pyridine-3-ol]
[1]
  effects in sleep onset and sleep maintenance: failed to show significant effects
[2]
  psychiatric adverse events: steep increase
[3]
  benefit of combining gaboxadol with escitalopram over escitalopram alone: no additional benefit
